Experimental data reported in PMC13233820, “Recruitment of Mre11 to recombination sites during meiosis” (Nature Communications, 2026).

Tests used:
[1] = test system: Mre11^myc yeast strains; experiment: MMS and CPT sensitivity assay (spotted serial dilutions); format: cell-based, Saccharomyces cerevisiae; settings: ten-fold serial dilutions on YPD; for Sensitivity of mre11-ΔC49 mutant (in words): mre11-ΔC49 strain; for Sensitivity of mre11-ΔIDR mutant (in words): mre11-ΔIDR strain compared with wild type
Description: (§1) Following standard protocols, strains were patched on YPG plates, mated and streaked on YPD plates, and selected diploid colonies grown in liquid YPD at 30 °C, 250 rpm, overnight. For meiotic synchronization, diploid cultures grown overnight in YPD were transferred to YPA (1% yeast extract, 2% peptone, 1% potassium acetate) at OD600 0.2 and grown for 12–14 h at 30 °C, 250 rpm. Once the cultures reached OD600 between 1.2–1.6, cells were washed once with prewarmed sterile water and immediately transferred to sporulation medium supplemented with amino acids (320 µL amino acid complementation media for 100 mL of sporulation media (SPM)) and were kept shaking at 30 °C, 250 rpm during the entire meiotic time-course. For MMS and CPT (Sigma) sensitivity assays, serial dilutions of overnight cultures were spotted on freshly prepared YPD-MMS or YPD-CPT plates containing the indicated percentage of MMS or CPT, respectively. Plates were grown for two days at 30 °C. For immunofluorescence of vegetatively growing cells, overnight cultures were refreshed by diluting to OD600 0.2 and grown for 3-4 hours to reach OD600 1.2–1.4 before subjecting to MMS or MMS followed by 5% 1,6-hexanediol treatment. For 5% 1,6-hexanediol treatment, cells were first converted to spheroplasts and then treated with 5% 1,6-hexanediol for 4-5 min. Spheroplasts were then immediately washed, lysed, and fixed using the protocol described below.

[2] = test system: MMS-induced Mre11^myc foci in vegetatively growing yeast; experiment: Immunofluorescence of MMS-induced Mre11myc foci, vegetative yeast nuclear spreads; format: cell-based, Saccharomyces cerevisiae; settings: MMS-treated, no hexanediol
Description: as §1
Meiotic cultures were harvested 4 h after transfer to SPM, washed with sterile cold water, and resuspended in 1 M sorbitol, 1 × PBS (pH 7), 10 mM DTT, 0.5 mg/ml zymolyase 20 T, and incubated for 30 mins at 30 °C with gentle shaking. […]
Slides were blocked with 90% FBS, 1 × PBS for 1 h at room temperature in a humid chamber and then incubated with primary antibody (mouse mAb anti-myc, 1:200 (2276S, Cell Signaling Technology), rabbit anti-phospho H2A-S129, 1:200 (ab15083, abcam)) diluted in 3% BSA, 1 × PBS in a humid chamber for 2 h at 37 °C or overnight at 4 °C. […] Images were captured on a Zeiss Axio Observer with a 100 ×/1.4 NA oil immersion objective and were analyzed in ImageJ.

[3] = test system: Mre11 condensates; format: biochemical, Saccharomyces cerevisiae; settings: 500 mM NaCl, brief exposure
Description: Experiments were performed without PEG. b, d Effect of DNase I, in the absence of PEG, on (b) Mre11 (n = 9 (no treatment) and 11 (DNase I)) and (d) MRX (n = 9 (no treatment) and 11 (DNase I)) condensates. Condensates were pre-assembled for 20 min with 5.7 nM pUC19 prior to challenge. Quantification represents total foci intensity (green) in a field of view and total number of foci per 1000 µm^2 (magenta). Foci intensity is normalized to the mean intensity of samples with DNA for (a, c) and untreated samples for (b, d). Error bars represent mean ± SD from the indicated (n) fields of view. e, f Effect of the presence of 5% PEG-3350 on (e) Mre11 (n = 12) and (f) MRX (n = 11) condensate formation. Quantification represents total foci intensity (green) in a field of view (normalized to the mean of + PEG images) and total number of foci per 1000 µm^2 (magenta). Error bars represent mean ± SD from the indicated (n) fields of view. g–j Effect of challenge with 5% 1,6-hexanediol and 0.5 M NaCl on (g, h) Mre11 and (i, j) MRX condensates. […] In the control reaction, an equivalent volume (1/20) of water was added instead of hexanediol. […]
(§2) Proteins were diluted to a 10 × stock of their appropriate working concentrations in their respective storage buffers. […] Images were analyzed with ImageJ using a custom-made script. […] Data were analyzed using Graphpad Prism 10.4.0.

[4] = test system: MRX condensates; format: biochemical, Saccharomyces cerevisiae; settings: 500 mM NaCl, brief exposure
Description: Experiments were performed without PEG. b, d Effect of DNase I, in the absence of PEG, on (b) Mre11 (n = 9 (no treatment) and 11 (DNase I)) and (d) MRX (n = 9 (no treatment) and 11 (DNase I)) condensates. Condensates were pre-assembled for 20 min with 5.7 nM pUC19 prior to challenge. Quantification represents total foci intensity (green) in a field of view and total number of foci per 1000 µm^2 (magenta). Foci intensity is normalized to the mean intensity of samples with DNA for (a, c) and untreated samples for (b, d). Error bars represent mean ± SD from the indicated (n) fields of view. e, f Effect of the presence of 5% PEG-3350 on (e) Mre11 (n = 12) and (f) MRX (n = 11) condensate formation. Quantification represents total foci intensity (green) in a field of view (normalized to the mean of + PEG images) and total number of foci per 1000 µm^2 (magenta). Error bars represent mean ± SD from the indicated (n) fields of view. g–j Effect of challenge with 5% 1,6-hexanediol and 0.5 M NaCl on (g, h) Mre11 and (i, j) MRX condensates. Condensates were assembled for 20 min prior to challenge and incubated for 15 min and 10 min, respectively, after challenge. […]
as §2

[5] = test system: supercoiled pUC19 plasmid DNA; experiment: In vitro condensation assay of MRX complex (fluorescence microscopy); format: biochemical; settings: in the presence of plasmid DNA
Description: Fig. 1 Mre11 and the MRX complex assemble DNA-dependent condensates in vitro. a, c Effect of the presence of plasmid DNA on condensation of (a) Alexa488-labeled Mre11 (n = 11 and 9 fields of view for reactions without and with DNA, respectively) and (c) eGFP-tagged MRX (n = 11 (- DNA) and 9 ( + DNA)). Experiments were performed without PEG. b, d Effect of DNase I, in the absence of PEG, on (b) Mre11 (n = 9 (no treatment) and 11 (DNase I)) and (d) MRX (n = 9 (no treatment) and 11 (DNase I)) condensates. Condensates were pre-assembled for 20 min with 5.7 nM pUC19 prior to challenge. Quantification represents total foci intensity (green) in a field of view and total number of foci per 1000 µm^2 (magenta). Foci intensity is normalized to the mean intensity of samples with DNA for (a, c) and untreated samples for (b, d). […] Quantification represents total foci intensity (green) in a field of view (normalized to the mean of + PEG images) and total number of foci per 1000 µm^2 (magenta). […]
Fig. 2 The C-terminal IDR of Mre11 is required for condensation. a AlphaFold2 predicted model of Mre11 (AF-P32829-F1-v4). […] Quantification represents total fluorescence intensity (green) in a field of view and total number of foci per 1000 µm^2 (magenta). […]

## CC[C@@]1(O)C(=O)OCc2c1cc1n(c2=O)Cc2cc3ccccc3nc2-1 [CPT, camptothecin]
[1]
  Sensitivity of mre11-ΔC49 mutant (in words): resistant
  Sensitivity of mre11-ΔIDR mutant (in words): as resistant to MMS or CPT as wild-type cells

## COS(C)(=O)=O [MMS, methylmethanesulfonate]
[2]
  Percentage of aggregates: 0
[1]
  Sensitivity of mre11-ΔC49 mutant (in words): resistant
  Sensitivity of mre11-ΔIDR mutant (in words): as resistant to MMS or CPT as wild-type cells

## [Cl-].[Na+] [NaCl]
[3]
  Effect on Mre11 foci intensity (in words): strongly reduced foci intensity
[4]
  Effect on MRX foci intensity (in words): strongly reduced foci intensity

## MRX: Mre11-Rad50-Xrs2 complex, recombinant from Sf9 cells
[5]
  Condensate formation (in words): form large clusters visible by fluorescence microscopy
